Assay results as given in article PMC4039310 (Molecular Systems Biology, 2013).
Entries after “also recorded” stand apart in the source; their conditions may differ. Where two headings read alike, the source gives them in different places.

Columns and labels:
[1] = system: EGFR and ERK phosphorylation in PC9GR, HCC827 T790M and HCC4006 T790M cells; assay: Western blotting of signaling changes after 4 h drug treatment; type: cell-based, human
Description: Signaling changes were evaluated by western blotting after 4 h treatment. […] In (E and G), equal protein loading was confirmed by β-actin evaluation.
Immunoprecipitation and protein expression analysis
Whole cell lysates were prepared using ice-cold TNN-HS buffer (50 mM HEPES, pH 8.0, 150
protease inhibitor cocktail). Total cellular proteins were quantified using the Bio-Rad protein
assay. For immunoprecipitation, 600 μg of total protein was incubated with 6 μL of mouse
Biotechnology (Santa Cruz, CA) as the control overnight at 4°C with rotation and then incubated
with protein G-agarose beads (Roche, Indianapolis, IN) for 3 hours at 4°C. Beads were washed
five times with TNN-HS buffer, and immunoprecipitated proteins were eluted from beads with
30 μL of 2X SDS-PAGE sample buffer from Bio-Rad (Hercules, CA) at 95°C for 5 minutes.
pThr202/Tyr204-p44/42 MAPK, AKT, pSer473-AKT, and tSRC from Cell Signaling; GRB2,

[2] = system: patients with leukemia and lung cancer; conditions: cited from earlier work
[3] = system: proteins in total cell lysates of PC9GR cells; assay: Midostaurin affinity chromatography (drug pulldown) with LC-MS/MS, PC9GR lysate; type: binding, human; conditions: PC9 and PC9GR lysates
Description: (§1) LC-MS/MS analysis was performed in duplicate on a LTQ-Orbitrap MS (Thermo Fisher).
(§2) RNA isolated from PC9 and PC9GR cells were infected with either ARHG5 shRNA or scrambled shRNA and cDNA transcription using RNeasy Mini kit and QuantiTect Reverse Transcription kit from Qiagen (Valencia, CA). Human ARHG5 probe and human 18s rRNA endogenous control were purchased from Applied Biosystems (Foster City, CA). Quantitative real-time PCR reactions were run in triplicate on MicroAmp® Optical 96-well reaction plates with barcode using the 7900HT Fast real-time PCR system, and data were analyzed with 2.3 SDS software and normalized by 18s endogenous control. […]
(§3) aminomethylbenzoic acid in the presence of HATU and diisopropylethylamine and subsequent […]
(§4) on NHS-activated Sepharose 4 Fast Flow resin (GE Healthcare Bio-Sciences AB, Uppsala, […]
(§5) Affinity chromatography was performed as reported previously with total cell lysates of PC9 and PC9GR cells containing each 5.5 mg of protein.
(§6) Eluates were loaded on a SDS-PAGE gel, briefly run into the gel, and excised as a single piece before in-gel trypsin digestion and sample processing, which was done as described (Rix et al, LC-MS/MS analysis was performed in duplicate on a LTQ-Orbitrap MS (Thermo Fisher). […]
(§7) searching with the Mascot (Matrix Science) and Sequest (Thermo Fisher) search engines.
(§8) Kinase inhibition analysis […]

[4] = biological target: T1, proteins in total cell lysates of PC9GR cells (Homo sapiens, UniProt P00533, DEL746-750/T790M); assay: as above; type: binding; conditions: PC9GR lysate, E746-A750+T790M EGFR
T1 construct: endogenous in cells; host or cells: PC9GR
Description: as §1, §2, §3, §4, §5, §6, §7, §8

[5] = biological target: EGFR wild type (Homo sapiens, UniProt P00533); assay: In vitro kinase inhibition assay (Millipore KinaseProfiler); type: biochemical; conditions: wild-type allele; 0.0001 to 1 μM vs DMSO
Description: (§9) In vitro kinase inhibition assays were performed on the Millipore KinaseProfiler™ platform.
(§10) In vitro kinase assays were conducted using Merck Millipore's KinaseProfiler service according to the protocols detailed at http://www.millipore.com/techpublications/tech1/pf3036.
(§11) Human Phospho-kinase array assay
(§12) PC9 and PC9GR cells were infected with lentivirus expressing shRNA against ARHG5 or scrambled shRNA as control for 48 hours. The relative levels of phosphorylation of 46 kinase phosphorylation sites determination was performed using Human Phospho-Kinase Array Kit (R&D Systems, Minneapolis, MN). Briefly, two-hundred micrograms of total cell lysate protein were incubated with Phospho-Kinase array membranes overnight at 4 C. Detection of proteins was accomplished using the Detection Antibody Cocktail and enhanced […]

[6] = biological target: T2, EGFR L858R (Homo sapiens, UniProt P00533, L858R); assay: as above; type: biochemical; conditions: activating point mutation L858R; 0.0001 to 1 μM vs DMSO
T2 construct: purchased Merck Millipore (KinaseProfiler service)
Description: as §9, §10, §11, §12

[7] = biological target: proteins in total cell lysates of PC9 cells (Homo sapiens, UniProt P00533, DEL746-750); assay: Midostaurin affinity chromatography (drug pulldown) with LC-MS/MS, PC9 lysate; type: binding
Description: as §1, §2, §3, §4, §5, §6, §7, §8

[8] = system: PC9 cells
Description: (§13) The ON-TARGET plus Smart pool custom siRNA library included siRNA pools containing four different siRNAs. This custom library and the ON-TARGET plus Non-Targeting Pool, non-targeting siRNA #4, and GAPD control siRNA pool were purchased from Thermo Scientific (Dharmacon). siRNA was delivered in triplicate to each well using a Precision^TM microplate liquid handler (BioTek). Plates were incubated for 5 days for cell viability assay and for 48 h for the pERK and pAKT in-cell western analyses. […] Viability and signaling changes were determined for each target gene after normalization on ON-TARGET plus Non-Targeting pool control siRNA. […]
(§14) The cell viability assay (CellTiter-Glo) was conducted according to the recommendations for the CellTiter-Glo Luminescent Cell Viability Assay from Promega (Madison, WI). Cells were plated […]
(§15) and either transfected with siRNA or infected with […] of lentiviruses plus 6 µg/mL polybrene (Sigma) for 5 days. Cell-Titer Glo reagent was added to each well, and luminescence was recorded using Victor plate reader from PerkinElmer (Walthom, MA). […]

[9] = system: HCC4006 cells
Description: as §13, §14, §15

[10] = system: HCC827 cells
Description: as §13, §14, §15

[11] = system: HCC4006ER cells
Description: as §13, §14, §15

[12] = system: PC9GR cells
Description: as §13, §14, §15

[13] = system: HCC827ER cells
Description: as §13, §14, §15

## C[C@]12O[C@H](C[C@]1(O)CO)n1c3ccccc3c3c4c(c5c6ccccc6n2c5c31)CNC4=O [CEP-701, lestaurtinib]
[1]
  effects on EGFR and downstream ERK phosphorylation: little to modest effects; also recorded: reductions in ERK phosphorylation at concentrations below those necessary for inhibition of EGFR phosphorylation
[2]; leukemia, ref Marshall et al, 2005
  tolerability: good tolerability

## C#Cc1cccc(Nc2ncnc3cc(OCCOC)c(OCCOC)cc23)c1 [Erlotinib, erlotinib]
[1]
  effects on EGFR and downstream ERK phosphorylation: modest effects

## CO[C@@H]1[C@H](N(C)C(=O)c2ccccc2)C[C@H]2O[C@]1(C)n1c3ccccc3c3c4c(c5c6ccccc6n2c5c31)C(=O)NC4 [Midostaurin, midostaurin]
[1]; western blotting after 4 h, three T790M EGFR cell lines
  effects on EGFR and downstream ERK phosphorylation: modest effects
[3]
  protein kinases observed in total in midostaurin pulldown: 71
[4]
  EGFR binding to immobilized midostaurin: EGFR bound to midostaurin
[2]; patients with leukemia and lung cancer, ref Monnerat et al, 2004, Fischer et al, 2010
  tolerability: well tolerated
[5]
  effect on EGFR kinase activity: no substantial effect
[6]
  effect on EGFR kinase activity: no substantial effect
[7]
  EGFR binding to immobilized midostaurin: no EGFR associated with midostaurin

## TITIN
[8]
  PC9_Viability Viability %: 69.56%
[9]
  HCC4006_Viability Viability %: 63.88%
[10]
  HCC827_Viability Viability %: 67.29%
[11]
  HCC4006ER_Viability Viability %: 71.94%
[12]
  PC9GR_Viability Viability %: 62.56%
[13]
  HCC827ER_Viability Viability %: 73.41%
